# Reference: US7109193B2, “Tricyclic diazepines tocolytic oxytocin receptor antagonists” (Wyeth, priority 2001, dated 2006)
# Target: T1, human vasopressin V1a receptor subtype (Homo sapiens, UniProt P37288)
# T1 construct: host or cells: CHO cells (pZeoSV vector for the Thibonnier line)
# Assay: Vasopressin binding in Chinese Hamster Ovary cell membranes expressing human vasopressin V1a subtype receptors
# Settings: 100 nM, CHO cell membranes, [3H]Manning ligand, values without parentheses
# Method: Vasopressin Binding in Chinese Hamster Ovary Cell Membranes Expressing Human Vasopressin V1a Subtype Receptors
# The trypsin is removed by aspiration and the cells dislodged by tapping. Cell Culture medium (e.g. 30 mL for 1:30 split) is immediately added and mixed well to inactivate trypsin. 1 mL of detached cells is added to new culture flasks containing fresh cell culture medium (e.g., into 25 mL per T-150 flask), and mixed gently. The cells are incubated at 37° C. in 5% CO2. The medium is changed at 3 to 4 days interval (or as appropriate). […] All steps are done under sterile conditions. B. Membrane Preparation: The cells are washed twice gently with Hank's Balanced Salt solution (e.g,. use 10 mL per T-150 flask). […] The contents are transferred to centrifuge tubes (50 mL) kept in an ice bath. All subsequent steps are done at 4° C. The tubes are centrifuged at 300×g for 15 min (1380 rpm on SORVAL, Model RT6000D, using the rotor for 50 mL tubes). The supernatant is discarded and the cells suspended in homogenizing buffer(10 mM Tris-HCl containing 0.25 M sucrose and 1 mM EDTA, pH 7.4) ensuring that the volume of the buffer is about ten times the volume of the cell pellet. The cells are pooled into a centrifuge tube (50 mL) and homogenized with a Polytron at setting 6 for 10 sec. The homogenate is transferred into a Potter-Elvjehm homogenizer and homogenized with 3 strokes. The homogenate is centrifuged at 1500×g for 10 min at 4° C. (3100 rpm using SORVAL, model RT6000D, using the rotor for 50 mL tubes). The pellet is discarded. The supernatant is centrifuged at 100,000×g for 60 min. at 4° C. (Beckman L8-80M ultracentrifuge; spin at 37,500 rpm with rotor type 70 Ti for 50 mL tubes; 38,000 rpm with type 80Ti for 15 mL tubes; or 35,800 rpm with rotor type 45Ti). The supernantant is discarded and the pellet suspended in 3 to 4 mL of Tris buffer (50 mM TRIS-HCl, pH 7.4). The protein content is estimated by the Bradford or Lowry method. The volume of the membrane suspension is adjusted with the membrane buffer (50 mM Tris-HCl containing 0.1% BSA and 0.1 mM PMSF) to give 3.0 mg/mL (or as appropriate) of protein. The membranes are aliquoted and stored at −70° C. C. Radioligand Binding Assay: In wells of a 96-well format microtiter plate, is added 90, 110 or 130 μL (to make up a final volume of 200 μL) of assay buffer containing 50 mM of Tris-HCl (pH 7.4), BSA (heat inactivated, protease-free), […], 1 mg % aprotinin, 1 mg % leupeptin, 2 mg % 1,10-phenanthroline, 10 mg % trypsin inhibitor, and 0.1 mM PMSF. The inhibitors are added on the day of the experiment. The components are mixed at room temperature, and then kept in ice bath following adjustment of the pH to 7.4. […] 20 μL of 50% DMSO is added for Manning and other peptide ligands and the assay buffer volume is adjusted accordingly. To each well is added 50 μL of frozen membrane suspension thawed immediately prior to use and diluted in the assay buffer to the required concentration (equivalent to 25 to 50 μg of protein/well as needed). 20 μL of 8 nM [^3H]Manning ligand in the assay buffer, prepared just before use, is added, and incubated at room temperature for 60 min. shaking the plate on a mechanical shaker for the first 15 min. The incubation is stopped by rapid filtration of the plate contents followed by wash with ice-cold buffer (50 mM Tris-HCl, pH 7.4) using a cell harvester (Tomtek and Printed filtermat-B filter paper). The filter paper is thoroughly dried (7–12 min. in a microwave oven) and impregnated with MeltiLex B/H melt-on scintillation wax sheets and the radioactivity counted in a betaplate scintillation counter.
# Binding data is either reported as percent inhibition at a certain concentration or if an IC50 was calculated, as a nanomolar concentration.
# T1 sequence (P37288 whole entry): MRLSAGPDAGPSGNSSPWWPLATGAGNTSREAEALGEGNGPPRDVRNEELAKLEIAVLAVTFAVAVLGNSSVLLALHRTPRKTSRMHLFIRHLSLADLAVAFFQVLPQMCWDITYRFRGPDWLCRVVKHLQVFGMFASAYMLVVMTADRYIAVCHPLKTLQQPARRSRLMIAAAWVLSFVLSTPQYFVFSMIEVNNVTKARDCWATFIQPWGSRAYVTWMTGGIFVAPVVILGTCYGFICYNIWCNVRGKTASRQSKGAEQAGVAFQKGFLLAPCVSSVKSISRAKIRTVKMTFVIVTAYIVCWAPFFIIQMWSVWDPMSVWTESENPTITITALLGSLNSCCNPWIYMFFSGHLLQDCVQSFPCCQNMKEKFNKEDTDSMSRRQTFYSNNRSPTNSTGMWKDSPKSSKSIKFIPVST
inhibition at 0.1 µM,SMILES,V1a % inhibition @ 100 nM
–,"COc1cc(C(=O)N2Cc3ccc(C(=O)N4CC[C@@H](N(C)C)C4)n3Cc3ccccc32)ccc1-c1cccc2ccccc12 [Example 276, [(3R)-3-(Dimethylamino)pyrrolidinyl]{10-[3-methoxy-4-(1-naphthyl)benzoyl]-10,11-dihydro-5H-pyrrolo[2,1-c][1,4]benzodiazepin-3-yl}methanone]",4%
52%,"COc1cccc(-c2ccc(C(=O)N3Cc4ccc(C(=O)N(C)CCCN(C)C)n4Cc4ccccc43)cc2OC)c1 [Example 108, 10-[(2,3′-Dimethoxy[1,1′-biphenyl]-4-yl)carbonyl]-N-[3-(dimethylamino)propyl]-N-methyl-10,11-dihydro-5H-pyrrolo[2,1-c][1,4]benzodiazepine-3-carboxamide]",–
3%,"O=C(c1ccc2n1Cc1ccccc1N(C(=O)c1ccc(-c3cccc4ccccc34)cc1Cl)C2)N1CCC(N2CCCC2)CC1 [Example 147, {10-[2-Chloro-4-(1-naphthyl)benzoyl]-10,11-dihydro-5H-pyrrolo[2,1-c][1,4]benzodiazepin-3-yl}[4-(1-pyrrolidinyl)-1-piperidinyl]methanone]",–
–,"COc1ccccc1-c1ccc(C(=O)N2Cc3ccc(C(=O)N4CCC[C@H]4CN4CCCC4)n3Cc3ccccc32)cc1OC [Example 269, {10-[(2,2′-Dimethoxy[1,1′-biphenyl]-4-yl)carbonyl]-10,11-dihydro-5H-pyrrolo[2,1-c][1,4]benzodiazepin-3-yl}[(2S)-2-(1-pyrrolidinylmethyl)pyrrolidinyl]methanone]",−1%
18%,"COc1cc(C(=O)N2Cc3ccc(C(=O)NCCCn4ccnc4)n3Cc3ccccc32)ccc1-c1ccccc1C [Example 128, N-[3-(1H-Imidazol-1-yl)propyl]-10-[(2-methoxy-2′-methyl[1,1′-biphenyl]-4-yl)carbonyl]-10,11-dihydro-5H-pyrrolo[2,1-c][1,4]benzodiazepine-3-carboxamide]",–
–,"COc1cc(C(=O)N2Cc3ccc(C(=O)N(C)CCCN(C)C)n3Cc3ccccc32)ccc1-n1c(C)ccc1C [Example 310, N-[3-(Dimethylamino)propyl]-10-[4-(2,5-dimethyl-i H-pyrrol-1-yl)-3-methoxybenzoyl]-N-methyl-10,11-dihydro-5H-pyrrolo[2,1-c][1,4]benzodiazepine-3-carboxamide]",4%
–,"COc1cc(C(=O)N2Cc3ccc(C(=O)N4CCC[C@H]4CN4CCCC4)n3Cc3ccccc32)ccc1-c1ccccc1C [Example 266, {10-[(2-Methoxy-2′-methyl[1,1′-biphenyl]-4-yl)carbonyl]-10,11-dihydro-5H-pyrrolo[2,1-c][1,4]benzodiazepin-3-yl}[(2S)-2-(1-pyrrolidinylmethyl)pyrrolidinyl]methanone]",49%
–,"O=C(c1ccc(-c2cccc3ccccc23)cc1Cl)N1Cc2ccc(C(=O)N3CCC[C@H]3CN3CCCC3)n2Cc2ccccc21 [Example 261, {10-[2-Chloro-4-(1-naphthyl)benzoyl]-10,11-dihydro-5H-pyrrolo[2,1-c][1,4]benzodiazepin-3-yl}[(2S)-2-(1-pyrrolidinylmethyl)pyrrolidinyl]methanone]",13%
42%,"Cc1ccccc1-c1ccc(C(=O)N2Cc3ccc(C(=O)NCCN4CCCCC4)n3Cc3ccccc32)cc1C [Example 150, 10-[(2,2′-Dimethyl[1,1′-biphenyl]-4-yl)carbonyl]-N-[2-(1-piperidinyl)ethyl]-10,11-dihydro-5H-pyrrolo[2,1-c][1,4]benzodiazepine-3-carboxamide]",–
45%,"Cc1ccccc1-c1ccc(C(=O)N2Cc3ccc(C(=O)N4CCC(N5CCCCC5)CC4)n3Cc3ccccc32)cc1C [Example 113, {10-[(2-Methyl-2′-methyl[1,1′-biphenyl]-4-yl)carbonyl]-10,11-dihydro-5H-pyrrolo[2,1-c][1,4]benzodiazepin-3-yl}[4-(1-piperidinyl)-1-piperidinyl]methanone]",–
–,"COc1cc2c(cc1OC)N(C(=O)c1ccc(-c3ccccc3C(F)(F)F)c(C)c1)Cc1ccc(C(=O)N(C)CCCN(C)C)n1C2.Cl [Example 13, N-Methyl-[N-(3-dimethylamino)propyl]-7,8-dimethoxy-10-{[2-methyl-2′-(trifluoromethyl)[1,1′-biphenyl]-4-yl]carbonyl}-10,11-dihydro-5H-pyrrolo[2,1-c][1,4]benzodiazepine-3-carboxamide hydrochloride salt]",4%
5%,"O=C(NCCCn1ccnc1)c1ccc2n1Cc1ccccc1N(C(=O)c1ccc(-c3cccc4ccccc34)cc1Cl)C2 [Example 134, 10-[2-Chloro-4-(1-naphthyl)benzoyl]-N-[3-(1H-imidazol-1-yl)propyl]-10,11-dihydro-5H-pyrrolo[2,1-c][1,4]benzodiazepine-3-carboxamide]",–
-3%,"COc1cccc(-c2cc(OC)c(C(=O)N3Cc4ccc(C(=O)N5CCC(N6CCCCC6)CC5)n4Cc4ccccc43)cc2Cl)c1 [Example 117, {10-[(6-Chloro-3-methoxy-3′-methoxy[1,1′-biphenyl]-4-yl)carbonyl]-10,11-dihydro-5H-pyrrolo[2,1-c][1,4]benzodiazepin-3-yl}[4-(1-piperidinyl)-1-piperidinyl]methanone]",–
8%,"Cc1cc(C(=O)N2Cc3ccc(C(=O)N4CCC(N5CCCCC5)CC4)n3Cc3ccccc32)ccc1-c1ccccc1C(F)(F)F [Example 122, {10-[(2-Methyl-2′-(trifluoromethyl) -[1,1′-biphenyl]-4-yl)carbonyl]-10,11-dihydro-5H -pyrrolo[2,1-c][1,4]benzodiazepin-3-yl}[4-(1-piperidinyl)-1-piperidinyl]methanone]",–
–,"COc1cccc(-c2ccc(C(=O)N3Cc4ccc(C(=O)N5CCC[C@H]5CN5CCCC5)n4Cc4ccccc43)cc2OC)c1 [Example 270, {10-[(2,3′-Dimethoxy[1,1′-biphenyl]-4-yl)carbonyl]-10,11-dihydro-5H-pyrrolo[2,1-c][1,4]benzodiazepin-3-yl}[(2S)-2-(1-pyrrolidinylmethyl)pyrrolidinyl]methanone]",40%
–,"COc1ccccc1-c1ccc(C(=O)N2Cc3ccc(C(=O)N4CCC(N5CCCC5)CC4)n3Cc3ccccc32)cc1OC [Example 145, {10-[(2,2′-Dimethoxy[1,1′-biphenyl]4-yl)carbonyl]-10,11-dihydro-5H-pyrrolo[2,1-c][1,4]benzodiazepin-3-yl}[4-(1-pyrrolidinyl)-l-piperidinyl]methanone]",−4%
–,"Cc1ccccc1-c1ccc(C(=O)N2Cc3ccc(C(=O)N4CCC[C@H]4CN4CCCC4)n3Cc3ccccc32)cc1C [Example 260, {10-[(2,2′-Dimethyl[1,1′-biphenyl]-4-yl)carbonyl]-10,11-dihydro-5H-pyrrolo[2,1-c][1,4]benzodiazepin-3-yl}[(2S)-2-(1-pyrrolidinylmethyl)pyrrolidinyl]methanone]",55%
39%,"COc1cc(C(=O)N2Cc3ccc(C(=O)NCCN4CCCCC4)n3Cc3ccccc32)ccc1-c1ccccc1C [Example 154, 10-[(2-Methoxy-2′-methyl[1,1′-biphenyl]4-yl)carbonyl]-N-[2-(1-piperidinyl)ethyl]-10,11-dihydro-5H-pyrrolo[2,1-c][1,4]benzodiazepine-3-carboxamide]",–
–,O=C(c1ccc2n1Cc1ccccc1N(C(=O)c1ccc(-c3cccc4ccccc34)cc1Cl)C2)N1CCC(N2CCCCC2)CC1 [Example 121],0%
